From ChEMBL document CHEMBL1142614, “An antimicrobial C(14) acetylenic acid from a marine sponge Oceanapia species” (2000)
Active and inactive are the calls of the source. The rule behind the calls is not given here.

Key:
Escherichia coli [1] = assay: Antimicrobial activity against Escherichia coli at 50 ug after 24 hrs; assay type: functional; conditions: read-out: IZ
Saccharomyces cerevisiae [2] = assay: Antimicrobial activity against Saccharomyces cerevisiae act1-1 mutant at 50 ug after 24 hrs; assay type: functional; conditions: read-out: IZ
Saccharomyces cerevisiae [3] = assay: Antimicrobial activity against Saccharomyces cerevisiae YAT2296 mutant at 50 ug after 24 hrs; assay type: functional; conditions: read-out: IZ
Saccharomyces cerevisiae [4] = assay: Antimicrobial activity against Saccharomyces cerevisiae GT160-45C at 100 ug after 24 hrs; assay type: functional; conditions: read-out: IZ
Saccharomyces cerevisiae [5] = assay: Antimicrobial activity against Saccharomyces cerevisiae cdc5 mutant at 50 ug after 24 hrs; assay type: functional; conditions: read-out: IZ
Penicillium chrysogenum = assay: Antimicrobial activity against Penicillium chrysogenum after 24 hrs; assay type: functional, organism-based
Saccharomyces cerevisiae [6] = assay: Antimicrobial activity against Saccharomyces cerevisiae act1-1 mutant at 100 ug after 24 hrs; assay type: functional; conditions: read-out: IZ
Saccharomyces cerevisiae [7] = assay: Antimicrobial activity against Saccharomyces cerevisiae cdc5 mutant at 100 ug after 24 hrs; assay type: functional; conditions: read-out: IZ
Escherichia coli [8] = assay: Antimicrobial activity against Escherichia coli at 100 ug after 24 hrs; assay type: functional; conditions: read-out: IZ
Umbelopsis ramanniana = assay: Antimicrobial activity against Mortierella ramanniana after 24 hrs; assay type: functional, organism-based
Pseudomonas aeruginosa [9] = assay: Antimicrobial activity against Pseudomonas aeruginosa at 50 ug after 24 hrs; assay type: functional; conditions: read-out: IZ
Saccharomyces cerevisiae [10] = assay: Antimicrobial activity against Saccharomyces cerevisiae YAT2296 mutant at 100 ug after 24 hrs; assay type: functional; conditions: read-out: IZ
Staphylococcus aureus [11] = assay: Antimicrobial activity against Staphylococcus aureus at 100 ug after 24 hrs; assay type: functional; conditions: read-out: IZ
Candida albicans = assay: Antimicrobial activity against Candida albicans at 100 ug after 24 hrs; assay type: functional; conditions: read-out: IZ
Staphylococcus aureus [12] = assay: Antimicrobial activity against Staphylococcus aureus at 50 ug after 24 hrs; assay type: functional; conditions: read-out: IZ
Bacillus subtilis = assay: Antimicrobial activity against Bacillus subtilis at 100 ug after 24 hrs; assay type: functional; conditions: read-out: IZ
Pseudomonas aeruginosa [13] = assay: Antimicrobial activity against Pseudomonas aeruginosa at 100 ug after 24 hrs; assay type: functional; conditions: read-out: IZ

Work on `CC/C=C/C#C/C=C/C#CCCCC(=O)O` yielded a zone of inhibition at 50 µg/disc (Escherichia coli [1]) of 8.5 mm, a zone of inhibition at 50 µg/disc (Saccharomyces cerevisiae [2]) of 9 mm and a zone of inhibition at 50 µg/disc (Saccharomyces cerevisiae [3]) of 6.5 mm. The zone of inhibition at 100 µg/disc (Saccharomyces cerevisiae [4]) was 6.5 mm, the zone of inhibition at 50 µg/disc (Saccharomyces cerevisiae [5]) was 7 mm and the Activity (Penicillium chrysogenum) was “inactive”. It also gave a zone of inhibition at 100 µg/disc (Saccharomyces cerevisiae [6]) of 10 mm, a zone of inhibition at 100 µg/disc (Saccharomyces cerevisiae [7]) of 7.5 mm and a zone of inhibition at 100 µg/disc (Escherichia coli [8]) of 12 mm. The Activity (Umbelopsis ramanniana) was “inactive”, the zone of inhibition at 50 µg/disc (Pseudomonas aeruginosa [9]) was 8.5 mm and the zone of inhibition at 100 µg/disc (Saccharomyces cerevisiae [10]) was 7 mm. It also gave a zone of inhibition at 100 µg/disc (Staphylococcus aureus [11]) of 13.5 mm, a zone of inhibition at 100 µg/disc (Candida albicans) of 8.5 mm and a zone of inhibition at 50 µg/disc (Staphylococcus aureus [12]) of 9.5 mm. It also gave a zone of inhibition at 100 µg/disc (Bacillus subtilis) of 11 mm and a zone of inhibition at 100 µg/disc (Pseudomonas aeruginosa [13]) of 13 mm.
